In experiment [1] the target is T1, human recombinant P2X7 receptors (Homo sapiens, UniProt Q99572).
T1 construct: expressed in transfected cells
T1 sequence (Q99572 1-595): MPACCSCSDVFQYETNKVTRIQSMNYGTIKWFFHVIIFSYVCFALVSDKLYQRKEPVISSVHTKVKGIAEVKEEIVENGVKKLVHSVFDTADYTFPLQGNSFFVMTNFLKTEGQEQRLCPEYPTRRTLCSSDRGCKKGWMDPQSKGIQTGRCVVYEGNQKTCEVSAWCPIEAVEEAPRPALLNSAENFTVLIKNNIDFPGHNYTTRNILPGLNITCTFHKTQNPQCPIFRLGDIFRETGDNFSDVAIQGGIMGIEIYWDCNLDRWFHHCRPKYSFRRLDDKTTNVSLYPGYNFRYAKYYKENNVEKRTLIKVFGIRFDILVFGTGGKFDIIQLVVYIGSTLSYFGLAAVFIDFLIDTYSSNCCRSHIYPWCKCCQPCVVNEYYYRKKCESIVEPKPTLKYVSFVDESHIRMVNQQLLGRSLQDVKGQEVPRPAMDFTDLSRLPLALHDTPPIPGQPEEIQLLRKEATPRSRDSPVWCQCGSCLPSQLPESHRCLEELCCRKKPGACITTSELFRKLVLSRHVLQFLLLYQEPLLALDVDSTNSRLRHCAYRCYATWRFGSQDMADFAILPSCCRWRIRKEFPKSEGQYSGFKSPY
Briefly: Ethidium Accumulation Assay 2 (HEK293 cells, ATP-induced ethidium uptake). In kind it is cell-based. The following applies: HEK293 cells expressing human P2X7; sometimes mean of more than one measurement; read-out: Assay 2 (antagonist pIC50 for blocking ATP responses) (converted). The procedure: Eithidium Accumulation Assay 2
Human Embryonic Kidney (HEK) 293 cells, stably expressing human recombinant P2X7 receptors, were grown in poly-D-lysine pretreated 96 well plates for 24 hours at 37° C.
The cells were washed with assay buffer (100 μL), before addition of 25 μL of assay buffer and then 25 ul of assay buffer containing the putative P2X7 receptor antagonist compound. The cells were then incubated at room temperature (19-21° C.) for 30 min before addition of ATP solution (50 μM). […] Antagonist pIC50 values for blocking ATP responses were determined using iterative curve fitting techniques.

For experiment [2], the target named is T1, human recombinant P2X7 receptors. Kind of experiment: Ethidium Accumulation Assay 1 (HEK293 cells, ATP-induced ethidium uptake). In kind it is cell-based. Conditions: HEK293 cells expressing human P2X7; 1 mM ATP; sometimes mean of more than one measurement; read-out: Assay 1 (antagonist pIC50 for blocking ATP responses) (converted).

For `Cc1ccc(C(=O)N2CCn3c(nnc3-c3cnccn3)C2)c(C(F)(F)F)c1` [Example 148, 7-{[4-methyl-2-(trifluoromethyl)phenyl]carbonyl}-3-(2-pyrazinyl)-5,6,7,8-tetrahydro[1,2,4]triazolo[4,3-a]pyrazine], the IC50 in experiment [1] is under 501 nM. With `O=C(c1ccc(Cl)c(F)c1Cl)N1CCn2c(nnc2-c2ncns2)C1` [Example 186, 7-[(2,4-Dichloro-3-fluorophenyl)carbonyl]-3-(1,2,4-thiadiazol-5-yl)-5,6,7,8-tetrahydro[1,2,4]triazolo[4,3-a]pyrazine], the IC50 in experiment [1] was under 10 nM. Turning to `O=C(c1ccc(Cl)c(F)c1Cl)N1CCn2c(nnc2-c2csnn2)C1` [Example 189, 7-[(2,4-Dichloro-3-fluorophenyl)carbonyl]-3-(1,2,3-thiadiazol-4-yl)-5,6,7,8-tetrahydro[1,2,4]triazolo[4,3-a]pyrazine], the IC50 in experiment [1] is under 100 nM. Consider `O=C(c1cccc(C(F)(F)F)c1Cl)N1CCn2c(nnc2-c2cccnc2O)C1` [Example 163, 3-(7-{[2-chloro-3-(trifluoromethyl)phenyl]carbonyl}-5,6,7,8-tetrahydro[1,2,4]triazolo[4,3-a]pyrazin-3-yl)-2-pyridinol], for which the IC50 in experiment [1] was under 100 nM. Still for that read-out and setting: under `[2H]c1ccnc(-c2nnc3n2CCN(C(=O)c2ccc(Cl)c(F)c2Cl)C3)c1` [Example 182, 7-[(2,4-Dichloro-3-fluorophenyl)carbonyl]-3-(2-pyridinyl)-5,6,7,8-tetrahydro[1,2,4]triazolo[4,3-a]pyrazine-d1] stands under 10 nM.

In the case of `O=C(c1c(F)cccc1Cl)N1CCn2c(nnc2-c2ccccn2)C1` [Example 79, 7-[(2-chloro-6-fluorophenyl)carbonyl]-3-(2-pyridinyl)-5,6,7,8-tetrahydro[1,2,4]triazolo [4,3-a]pyrazine], in experiment [2], the IC50 was under 501 nM. For `O=C(c1cccc(C(F)(F)F)c1Cl)N1CCn2c(nnc2-c2ccncn2)C1` [Example 12, 7-{[2-chloro-3-(trifluoromethyl)phenyl]carbonyl}-3-(4-pyrimidinyl)-5,6,7,8-tetrahydro[1,2,4]triazolo[4,3-a]pyrazine], the IC50 in experiment [2] is under 100 nM. In the case of `O=C(c1cccc(Cl)c1Cl)N1CCn2c(nnc2-c2ccc[nH]2)C1` [Example 64, 7-[(2,3-dichlorophenyl)carbonyl]-3-(1H-pyrrol-2-yl)-5,6,7,8-tetrahydro[1,2,4]triazolo [4,3-a]pyrazine], the IC50 in experiment [2] was under 10 nM. On to `O=C(c1ccc(Cl)cc1Cl)N1CCn2c(nnc2-c2ccc(F)cc2F)C1` [Example 101, 7-[(2,4-dichlorophenyl)carbonyl]-3-(2,4-difluorophenyl)-5,6,7,8-tetrahydro[1,2,4]triazolo [4,3-a]pyrazine], for which the IC50 in experiment [2] was under 100 nM.

With `O=C(c1ccc(F)cc1Cl)N1CCn2c(nnc2-c2cnccn2)C1` [Example 85, 7-[(2-chloro-4-fluorophenyl)carbonyl]-3-(2-pyrazinyl)-5,6,7,8-tetrahydro[1,2,4]triazolo[4,3-a]pyrazine], in experiment [2], the IC50 is under 10 nM.

On to `O=C(c1cccc(C(F)(F)F)c1Cl)N1CCn2c(nnc2C2CC2)C1` [Example 133, 7-{[2-chloro-3-(trifluoromethyl)phenyl]carbonyl}-3-cyclopropyl-5,6,7,8-tetrahydro[1,2,4]triazolo[4,3-a]pyrazine], for which the IC50 in experiment [2] is under 100 nM. The same measure, in the same setting: under `O=C(c1cccc(C(F)(F)F)c1Cl)N1CCn2c(nnc2-c2cscn2)C1` [Example 42, 7-{[2-chloro-3-(trifluoromethyl)phenyl]carbonyl}-3-(1,3-thiazol-4-yl)-5,6,7,8-tetrahydro[1,2,4]triazolo[4,3-a]pyrazine] stands under 10 nM; under `Cc1ncccc1-c1nnc2n1CCN(C(=O)c1ccc(F)cc1Cl)C2` [Example 74, 7-[(2-chloro-4-fluorophenyl)carbonyl]-3-(2-methyl-3-pyridinyl)-5,6,7,8-tetrahydro[1,2,4]triazolo [4,3-a]pyrazine], under 501 nM. Regarding `O=C(c1ccc(F)cc1Cl)N1CCn2c(nnc2-c2ncccn2)C1` [Example 47, 7-[(2-chloro-4-fluorophenyl)carbonyl]-3-(2-pyrimidinyl)-5,6,7,8-tetrahydro[1,2,4]triazolo [4,3-a]pyrazine], the IC50 in experiment [2] is under 10 nM. In the case of `O=C(c1cccc(C(F)(F)F)c1Cl)N1CCn2c(nnc2-c2ccco2)C1` [Example 77, 7-{[2-chloro-3-(trifluoromethyl)phenyl]carbonyl}-3-(2-furanyl)-5,6,7,8-tetrahydro[1,2,4]triazolo[4,3-a]pyrazine], the IC50 in experiment [2] was under 10 nM.

With `Cc1ncccc1-c1nnc2n1CCN(C(=O)c1cccc(Cl)c1Cl)C2` [Example 73, 7-[(2,3-dichlorophenyl)carbonyl]-3-(2-methyl-3-pyridinyl)-5,6,7,8-tetrahydro[1,2,4]triazolo [4,3-a]pyrazine], in experiment [2], the IC50 was under 100 nM. Turning to `O=C(c1ccc(F)cc1C(F)(F)F)N1CCn2c(nnc2-c2ccccn2)C1` [Example 94, 7-{[4-fluoro-2-(trifluoromethyl)phenyl]carbonyl}-3-(2-pyridinyl)-5,6,7,8-tetrahydro[1,2,4]triazolo [4,3-a]pyrazine], in experiment [2], the IC50 is under 100 nM. Regarding `Cc1cccnc1-c1nnc2n1CCN(C(=O)c1ccc(F)cc1Cl)C2` [Example 32, 7-[(2-chloro-4-fluorophenyl)carbonyl]-3-(3-methyl-2-pyridinyl)-5,6,7,8-tetrahydro[1,2,4]triazolo[4,3-a]pyrazine], the IC50 in experiment [2] was under 100 nM. Regarding `O=C(c1cccc(C(F)(F)F)c1Cl)N1CCn2c(nnc2N2CCCC2)C1` [Example 19, 7-{[2-chloro-3-(trifluoromethyl)phenyl]carbonyl}-3-(1-pyrrolidinyl)-5,6,7,8-tetrahydro[1,2,4]triazolo [4,3-a]pyrazine], in experiment [2], the IC50 was under 100 nM.

As for `O=C(c1ccc(F)cc1Cl)N1CCn2c(nnc2-c2ncc(F)cc2F)C1` [Example 84, 7-[(2-chloro-4-fluorophenyl)carbonyl]-3-(3,5-difluoro-2-pyridinyl)-5,6,7,8-tetrahydro[1,2,4]triazolo [4,3-a]pyrazine], the IC50 in experiment [2] was under 100 nM. Take `O=C(c1cccc(C(F)(F)F)c1)N1CCn2c(nnc2-c2ccccn2)C1` [Example 86]: the IC50 in experiment [2] is under 100 nM. As to `O=C(c1cccc(C(F)(F)F)c1Cl)N1CCn2c(nnc2-c2ccc[nH]2)C1` [Example 38, 7-{[2-chloro-3-(trifluoromethyl)phenyl]carbonyl}-3-(1H-pyrrol-2-yl)-5,6,7,8-tetrahydro[1,2,4]triazolo [4,3-a]pyrazine], the IC50 in experiment [2] is under 10 nM. `O=C(c1cccc(Cl)c1Cl)N1CCn2c(nnc2-c2cscn2)C1` [Example 67, 7-[(2,3-dichlorophenyl)carbonyl]-3-(1,3-thiazol-4-yl)-5,6,7,8-tetrahydro[1,2,4]triazolo[4,3-a]pyrazine]: the IC50 in experiment [2] is under 10 nM.

As for `Cn1ccc(-c2nnc3n2CCN(C(=O)c2cccc(Cl)c2Cl)C3)n1` [Example 63, 7-[(2,3-dichlorophenyl)carbonyl]-3-(1-methyl-1H-pyrazol-3-yl)-5,6,7,8-tetrahydro[1,2,4]triazolo [4,3-a]pyrazine], the IC50 in experiment [2] was under 10 nM. For `O=C(c1cccc(Cl)c1Cl)N1CCn2c(nnc2-c2cccc(F)n2)C1` [Example 55, 7-[(2,3-dichlorophenyl)carbonyl]-3-(6-fluoro-2-pyridinyl)-5,6,7,8-tetrahydro[1,2,4]triazolo [4,3-a]pyrazine], in experiment [2], the IC50 was under 100 nM.
